Experiments:
stool microbiota [1] = test: Ex vivo stool slurry incubation, SCFA production by GC-FID; design: species or system human
Procedure: (§1) Fresh stool samples were collected and weighed before being transferred to anaerobic conditions, in which they were diluted in reduced PBS containing 0.1% L-Cysteine to a ratio of 1 g/5 ml. Samples were homogenized into a slurry before being aliquoted into 96-well plates. Samples of the unaltered slurry were taken for a baseline sample, after which inulin, pectin, and cellulose were added from stock solutions to final slurry concentrations of 10 g/L, 5 g/L and 20 g/L, respectively. Concentrations of inulin and pectin were determined based on the maximum stock concentration we were able to obtain in which the dietary fiber was fully dissolved. Four conditions were measured: inulin, pectin, cellulose and control (no spike-in). The samples were incubated anaerobically at 37° C., and two biological replicates (two different wells in the 96-well plates) were collected at each time point. Samples were collected after 2 and 4 hours from all participants and sent out for SCFA quantification on a GC-FID. Linear production rate was measured between 2 h and 4 h because this allowed Applicants maximum accuracy in measuring the time interval without introducing artefacts due to delays between conditions introduced during setup. Results obtained from slurry in large flasks on a shaker were in good agreement with data obtained in a 96-well plate format.
Chromatographic analysis was carried out using an Agilent 7890B system with a flame ionization detector (FID) (Agilent Technologies, Santa Clara, Calif.). A high resolution gas chromatography capillary column 30 m×0.25 mm coated with 0.25 μm film thickness was used (DB-FFAP) for the volatile acids (Agilent Technologies) and a high resolution gas chromatography capillary column 30 m×0.25 mm coated with 0.50 μm film thickness was used (DB-FFAP) for the nonvolatile acids. Nitrogen was used as the carrier gas. […]
The samples were kept frozen at −80° C. until analysis. […] A sample of the raw fecal material was transferred to a 2 mL tube, the weight of the fecal material was determined and 1.5 mL of HPLC water was added to each sample. […]

stool microbiota [2] = test: Ex vivo stool slurry incubation, inulin depletion by inulin-specific ELISA; design: species or system human
Procedure: as §1
Applicants use BioPAL's inulin immunoassay kit (BioPAL Worcester Mass.) to measure inulin concentration in filtrate from stool samples and follow manufacture's protocol. […]
To measure SCFA production ex vivo in response to different dietary polysaccharides, stool from 40 healthy human participants was homogenized into a slurry in anaerobic conditions and spiked with inulin, pectin or cellulose (cf. Methods). The slurry was then allowed to evolve over time and samples obtained at regular intervals in order to quantify SCFA content at each timepoint (FIG. 1). In order to determine the appropriate sampling frequency, Applicants performed pilot experiments in which Applicants analysed the trajectory of each SCFA concentration over a 24 h period. […]

[3] = dialysis bag constant; cited from earlier work
CaCo cell monolayers = test: Gut monolayer SCFA absorption measurements (Transwell, apical/basal sampling over 24 h); assay type: in vitro ADME; settings: CaCo monolayer-derived rate constant
Procedure: Applicants used a gut monolayer system without the immune component, the Gut monolayer was prepared as previously described by WLK Chen et al. (Chen et al., 2017b) Briefly Caco-2 or C2BBe1 along with HT29-MTX-E21 cells (Sigma) were seeded onto rat tail collagen I-(corning 354236) coated Transwell inserts (Corning 3460) in a 9:1 ratio (1×10^5 cells/cm2) in 500 μl seeding medium. The top and bottom compartments of the Transwell Plate were fed with 500 ul and 1.5 ml of seeding medium. The medium was changed every 2-3 days. After 20 days of gut insert maturation, the cell monolayer was ready to use.
Barrier integrity was quantified by TEER (TransEpithelial Electrical Resistance) using the EVOM2 and the Enfohm-12 (World Precision Instruments) at 37° C. Applicants measured cell monolayer integrity at the beginning and the end of the 24 h long experiment. […]
Gut luminal concentrations of microbially-derived SCFAs is a balance between net production in the lumen and absorption by the host epithelium. Unfortunately, quantitative understanding of the rate of absorption of a given SCFA by cells in the gut epithelia is limited. […] Applicants sought to estimate the order of magnitude of this rate constant, to better understand the fate of SCFAs produced by the microbiota in the colon (i.e. the balance between quantities absorbed versus quantities excreted). […]

Compound: pectin
- butyrate concentration over 24 h (stool microbiota [1]; participant G): produces it from pectin as well

Compound: inulin
- inulin substrate in slurry after 4 h (stool microbiota [2]; 10 g/L inulin, 4 h): a significant fraction of inulin substrate remained
- inulin substrate in slurry by 24 h (stool microbiota [2]; 10 g/L inulin, 24 h, five of the six participants tested): almost entirely consumed
- time for the majority of inulin to be fermented by the microbiota ex vivo (stool microbiota [2]; input concentration 10 g/L, most participants): 12 to 24 h
- butyrate concentration over 24 h (stool microbiota [1]; participant C): only produces butyrate from inulin

Compound: CCCC(=O)[O-].[Na+] [butyrate, Sodium Butyrate]
- absorption rate constant of butyrate [3]: 0.0019 mmol L-1h-1cm-2
- absorption rate constant of butyrate (CaCo cell monolayers): 0.091 mmol L-1h-1cm-2

Compound: cellulose
- SCFA production rates versus control (no spike-in) (stool microbiota [1]; 20 g/L cellulose, timepoints 2 h and 4 h): indistinguishable from control

Source: patent publication US20220351803A1, “Predicting The Response Of A Microbiota To Dietary Fibers” (MYOTA GMBH, priority 2019, published 2022)
